From US20070282012A1 (priority 2004, published 2007)
“And” between values parts separate entries of the source, which are not always exact repeats. Identical values can stand only once.

Tests used:
[1] = system: normal subjects; set-up: species or system human; conditions: in vivo
[2] = system: normal subjects; set-up: species or system human; conditions: in vivo; remark: listed apart in the source
[3] = system: normal subjects; set-up: species or system human; conditions: in vivo; remark: listed apart in the source
[4] = system: patients with tear deficient dry eye; conditions: human, in vivo
[5] = system: patients with tear deficient dry eye; conditions: human, in vivo; remark: listed apart in the source
[6] = system: tear deficient dry eyes; set-up: species or system human; conditions: in vivo
[7] = system: tear deficient dry eyes; set-up: species or system human; conditions: in vivo; remark: listed apart in the source
[8] = system: subjects regularly wearing SCL; set-up: species or system human; conditions: in vivo
[9] = system: subjects regularly wearing SCL; set-up: species or system human; conditions: in vivo; remark: listed apart in the source
[10] = system: subjects regularly wearing SCL; set-up: species or system human; conditions: in vivo; remark: listed apart in the source
[11] = system: normal subjects; conditions: in vivo
[12] = system: patients with tear deficient dry eye; conditions: in vivo

With “Thiopropanal S-Oxide [lacrimatory component]” the “lacrimation in the contralateral non-exposed eye” value [1] was “lacrimation is induced in the contralateral non-exposed eye”, the “time after exposure by which ΔR reached the maximum” value [1] was ≤ 1 min and the “ΔR (2 minutes)” value [1] was 0.25±0.14 mm. For the same substance, the “ΔR (10 minutes)” value [1] was ~0 mm, the “ΔR in the contralateral non-exposed eye” value [1] was 0.30 mm and the degree of stimulation [2] was 0. For the same substance, the “mean degree of the stimulation, four-level category rating” value [2] was 3 and 1.5, the “mean time taken for the stimulation to be felt (ST)” value [2] was 9.8 s and 14.5 s and 13.3 s and the “time taken for stimulation to be felt (ST), mean value±standard deviation” value [2] was 9.8 ± 1.5 s. The “reflex lacrimation by nasal exposure” value [3] was “no reflex lacrimation is induced”, the “time after exposure at which ΔR was maximum” value [4] was 2 min and the “ΔR (5 minutes)” value [4] was ~0 mm. For the same substance, the “degree of the stimulation, four-level category rating” value [5] was “zero”, the “mean degree of the stimulation, four-level category rating” value [5] was 1.8 and 1.7 and the “time taken for stimulation to be felt (ST), mean value±standard deviation” value [5] was 18.8 ± 9.3 s and 21.4 ± 9.8 s. The “radius of tear meniscus curvature R, mean value±standard deviation” value [6] was 0.34±0.20 mm, the “extensibility of the tear lipid layer, Grade, mean value±standard deviation” value [7] was 1.5±0.6 and the “R (radius of tear meniscus curvature), mean value±standard deviation” value [8] was 0.54±0.14 mm. The “grades of specular image of the tears on SCL” value [9] was 1.4±0.5, the NIBUT [10] was 9.1 ± 2.1 s and the “adverse or lingering effects of the exposure on the ocular surface” value [11] was “not found”. For the same substance, the “effects on the ocular surface epithelium” value [12] was “No effects on the ocular surface epithelium was observed”.
